Data published in patent US9358225B2, “Method for treating neurodegeneration using a p38MAPK inhibitor” (Bach Pharma, Inc., priority 2013, dated 2016).

Tested on: Atm−/− mice
Test: Modified rotarod behavioral test
Assay type: in vivo, mouse
Settings: P90, after treatment, vs PBS-treated Atm−/− and Atm+/+
Excerpt: The Atm−/− mice were originally generated by Dr. C. Barlow (Barlow et al., 1996). They were purchased from the Jackson Laboratory (Bar Harbor, Me.). Offspring of Atm+/− breeders were genotyped using real-time polymerase chain reaction-based assays of mouse tail DNA. Atm mice (1-month old) were divided into 3 groups: PBS-treated Atm+/+ mice (n=10/group); PBS-treated Atm−/− mice (n=9/group); and SB203580 (4-[5-(4-Fluorophenyl)-2-[4-(methylsulphonyl)phenyl]-1H-imidazol-4-yl]pyridine) treated Atm−/− mice (n=10/group). Mice were intraperitoneally injected with either PBS or SB203580 (4-[5-(4-Fluorophenyl)-2-[4-(methylsulphonyl)phenyl]-1H-imidazol-4-yl]pyridine) (5 mg/kg body weight) at 2-day intervals for 2 months. Animals were sacrificed one day after the last administration. Animal care was in accordance with The University of Texas MD Anderson Cancer Center guidelines for animal experiments.
We have devised a modified version of the standardized rotarod protocol (Columbus Instruments, Columbus, Ohio). […] Following training, three trials of mouse motor coordination were assessed by measuring the time before falling off the rotarod moving at 25 rpm.
Each experiment, including behavioral test, body weight measure and qRT-PCR was repeated at least three times. The proportion of mRNA expression was analyzed from a series of tissue sections. […]

Row | Compound | rotarod performance (time before falling off at 25 rpm)
1 | CC1(C)c2ccc(C(=O)O)cc2C(C)(C)N1[O] [CTMIO, 5-carboxy-1,1,3,3-tetramethylisoindolin-2-yloxyl] | stayed on the rod as long as did Atm+/+ mice
2 | CC(=O)N[C@@H](CS)C(=O)O [NAC, N-acetyl-L-cysteine] | stayed on the rod as long as did Atm+/+ mice
